These are literature values, as cited in patent EP2055233B1 (priority 2003, dated 2004).

The conditions of series [1]: in vivo, iv.

For the compound `CC(C)c1cccc(C(C)C)c1O` [propofol, 2,6-diisopropylphenol], the “dose recovered in urine as hydroxylated and conjugated metabolites” value is recorded as 88%. Moreover, the plasma concentration in series [1] is 1000 to 10000 ng/mL.
